Values of other authors in patent US6767507B1, “Uncomplexed cyclodextrin compositions for odor control” (The Procter & Gamble Company, priority 1998, dated 2004).

Details: not given

Structure (SMILES)	solubility in water
ClC=CC[N+]12CN3CN(CN(C3)C1)C2.[Cl-] [Dowicil 200, 1-(3-Chlorallyl)-3,5,7-triaza-1-azoniaadamantane chloride]	freely soluble in water

Same assay, conditions: in water

Structure (SMILES)	water solubility
OCCOc1ccccc1 [2-phenoxyethanol]	about 2.67%
OCCc1ccccc1 [2-phenylethanol]	about 2%
O=[N+]([O-])C1(Br)COCOC1 [Bronidox L, 5-bromo-5-nitro-1,3-dioxane]	about 0.46%
CC1(C)C(=O)N(CO)C(=O)N1CO [DMDM hydantoin, 1,3-bis(hydroxymethyl)-5,5-dimethyl-2,4-imidazolidinedione]	more than 50%
OCc1ccccc1 [benzyl alcohol]	about 4%
[H]/N=C(\N/C(=N/[H])NCCCCCCNC(=N)NC(=N)Nc1ccc(Cl)cc1)Nc1ccc(Cl)cc1 [chlorhexidine diacetate, 1,1′-hexamethylene bis(5-(p-chlorophenyl)biguanide), reference compound]	about 1.8%
[H]/N=C(\N/C(=N/[H])NCCCCCCNC(=N)NC(=N)Nc1ccc(Cl)cc1)Nc1ccc(Cl)cc1 [chlorhexidine digluconate, 1,1′-hexamethylene bis(5-(p-chlorophenyl)biguanide), reference compound]	about 70%
CC(C)(O)C(Cl)(Cl)Cl [chlorobutanol, 1,1,1-Trichloro-2-methylpropan-2-ol]	about 0.8%
[Na+].[O-][n+]1ccccc1[S-] [sodium pyrithione]	about 50%
